# Reference: patent publication US20220401514A1, “ANTIMICROBIAL, BACTERIOPHAGE-DERIVED POLYPEPTIDES AND THEIR USE AGAINST GRAM-NEGATIVE AND ACID-FAST BACTERIA” (CONTRAFECT CORPORATION, priority 2019, published 2022)
# Where two headings read alike, the source gives them in different places.
# Assays:
# Klebsiella pneumoniae = test: microbe, parasite or virus in culture; assay type: cell-based; conditions: CAA without human serum
# [1] = tested on: Mycobacterium tuberculosis strains
# Method: MIC values for various Chp peptides were determined using the CLSI method for broth microdilution in 96-well microtiter format.
# Next, MIC values for various Chp peptides were determined using the CLSI method above for broth microdilution in 96-well microtiter format for two different Mycobacterium tuberculosis strains. The MIC was determined as explained above for the NTM strains.
# M. avium = test: 45 hr MIC against M. avium (NTM); assay type: cell-based, Mycobacterium avium; conditions: M. avium Chester ATCC 700898
# [2] = tested on: P. aeruginosa strain CFS-1292; test: MIC in presence of divalent cations (calcium chloride, magnesium sulfate); assay type: cell-based, Pseudomonas aeruginosa
# Method: Next, Chp peptides were evaluated in the presence of different divalent cations. […]; (2) in the presence of 2 mM calcium chloride alone; (3) in the presence of 1 mM magnesium sulfate alone; and (4) in the presence of both 2 mM calcium chloride and 1 mM magnesium sulfate. […]
# Pseudomonas aeruginosa = test: microbe, parasite or virus in culture; assay type: cell-based; conditions: for MIC: CAA without human serum
# Enterobacter cloacae = test: microbe, parasite or virus in culture; assay type: cell-based
# Summary of the method: (§1)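 Medium: CAA with added human serum. Peptides tested for minimal inhibitory concentration against each strain.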
# Escherichia coli = test: microbe, parasite or virus in culture; assay type: cell-based
# Summary of the method: as §1
# M. smegmatis = test: 45 hr MIC against M. smegmatis (NTM), Mueller Hinton broth; assay type: cell-based, Mycobacterium smegmatis
# [3] = tested on: P. aeruginosa strain PAO1; test: MIC against PAO1 in Mueller-Hinton broth with 50% human plasma or human serum; assay type: cell-based, Pseudomonas aeruginosa
# [4] = tested on: P. aeruginosa strain CFS-1292; test: MIC in presence of mouse, rat, rabbit and human serum ([…] each); assay type: cell-based, Pseudomonas aeruginosa; conditions: P. aeruginosa CFS-1292
# Method: The activity of several Chp peptides against P. aeruginosa strain CFS-1292 in animal serum was evaluated. […] Rat, mouse, and rabbit serum were all obtained from pooled gender samples.
# [5] = tested on: Pseudomonas aeruginosa, Escherichia coli, Enterobacter cloacae, Klebsiella pneumoniae, and Acinetobacter baumannii; test: MIC against a range of Gram-negative organisms (statements covering several species); assay type: cell-based; conditions: Tables 40-44 isolates
# Summary of the method: as §1
# [6] = tested on: eight different strains of five species of Gram-negative bacteria; test: MBEC in eight strains of five species of Gram-negative bacteria; assay type: cell-based; conditions: for MBEC: 24 h biofilm in LB, 16 h treatment
# Method: Determination of Minimal Biofilm Eradicating Concentrations (MBEC). […] The OD600 of extracted crystal violet was determined. The MBEC value of each sample was determined as the minimum drug concentration required to remove >95% of biofilm biomass as assessed by crystal violet quantitation (in comparison to untreated controls).
# MBEC values were likewise determined for Chp2, Chp2-M1, and Chp10-M1 in eight different strains of five species of Gram-negative bacteria. […] The films were then washed and stained with crystal violet to visualize the MBEC.
# M. fortuitum = test: 45 hr MIC against M. fortuitum (NTM); assay type: cell-based, Mycobacterium fortuitum; conditions: M. fortuitum subsp. Fortuitum da Costa Cruz. ATCC 6841
# [7] = tested on: P. aeruginosa strain CFS 1292; assay type: cell-based, Pseudomonas aeruginosa
# [8] = P. aeruginosa isolates (n per peptide in table)
# [9] = E. cloacae isolates (n per peptide in table)
# [10] = E. coli isolates (n per peptide in table)
sequence,measurement,setting,value
MRLKMARRRYRLPRRRSRRLFSRTALRMHPRNRLRRIMRGGIRF [Chp2],MIC,"Klebsiella pneumoniae; Klebsiella pneumoniae (ATCC 10031, MIC control strain), RSC 814",4 µg/mL
same,MIC,"Klebsiella pneumoniae; Klebsiella pneumoniae (g2-3 HM35K), RSC 1138",4 µg/mL
same,MIC,"Klebsiella pneumoniae; Klebsiella sp. (HM-44; colon, Crohn's disease), RSC 1139",2 µg/mL
same,MIC,"Klebsiella pneumoniae; Klebsiella spp. (HM-223; gut of Crohn's disease patient), RSC 1131",4 µg/mL
same,MIC,[1]; Mycobacterium tuberculosis (Zopf) Lehmann and Neumann ATCC 25177,16 µg/mL
same,MIC,[1]; Mycobacterium tuberculosis (Zopf) Lehmann and Neumann ATCC 35817,16 µg/mL
same,45 hr MIC,M. avium,1 µg/mL
same,MIC,[2]; CAA media + 1 mM MgSO4,0.5 µg/mL
same,MIC,[2]; CAA media + 2 mM CaCl2,0.25 µg/mL
same,MIC,[2]; CAA media + + 1 mM MgSO4,0.25 µg/mL
same,MIC,[2]; CAA media alone,0.5 µg/mL
same,MIC,"Pseudomonas aeruginosa; P. aeruginosa 453 (Human clinical isolate, HSS), RSC 1292",4 µg/mL
same,MIC,"Pseudomonas aeruginosa; P. aeruginosa (ATCC 14213, human hip wound), RSC 1111",4 µg/mL
same,MIC,"Pseudomonas aeruginosa; P. aeruginosa (ATCC 15152, abscess in middle ear), RSC 1110",4 µg/mL
same,MIC,"Pseudomonas aeruginosa; P. aeruginosa (ATCC 15692, infected wound), RSC 489",4 µg/mL
same,MIC,"Pseudomonas aeruginosa; P. aeruginosa (ATCC 15692, infected wound), RSC 1115",4 µg/mL
same,MIC,"Pseudomonas aeruginosa; P. aeruginosa (ATCC 17646, human liver abscess), RSC 1109",4 µg/mL
same,MIC,"Pseudomonas aeruginosa; P. aeruginosa (ATCC 19142, tracheobronchial secretion), RSC 1108",2 µg/mL
same,MIC,"Pseudomonas aeruginosa; P. aeruginosa (ATCC 25102, bacteriophage host), RSC 1114",4 µg/mL
same,MIC,"Pseudomonas aeruginosa; P. aeruginosa (ATCC 27853, MIC control strain), RSC 815",4 µg/mL
same,MIC,"Pseudomonas aeruginosa; P. aeruginosa (ATCC BAA-27, lab strain), RSC 1113",4 µg/mL
same,MIC,"Pseudomonas aeruginosa; P. aeruginosa (PAO1, alternate source, HER1018), RSC 490",4 µg/mL
same,MIC50,Pseudomonas aeruginosa; [8],1 µg/mL
same,MIC100,Pseudomonas aeruginosa; [8],1 µg/mL
same,MIC Range,Pseudomonas aeruginosa; [8],0.25 to 1 µg/mL
same,MIC50,Enterobacter cloacae; [9],0.5 µg/mL
same,MIC100,Enterobacter cloacae; [9],1 µg/mL
same,MIC Range,Enterobacter cloacae; [9],0.125 to 1 µg/mL
same,MIC,"Enterobacter cloacae; Enterobacter cloacae (ATCC 13047, MIC control strain), RSC 1240, CAA without human serum",4 µg/mL
same,MIC,"Enterobacter cloacae; Enterobacter cloacae ATCC 13047, CAA supplemented with human serum",1 µg/mL
same,MIC,"Escherichia coli; E. coli (ATCC 25922, MIC control strain), RSC 813, CAA without human serum",2 µg/mL
same,MIC,"Escherichia coli; E. coli (HM346, colon, Crohn's disease), RSC 1212, CAA without human serum",2 µg/mL
same,MIC50,Escherichia coli; [10],0.5 µg/mL
same,MIC100,Escherichia coli; [10],2 µg/mL
same,MIC Range,Escherichia coli; [10],0.25 to 2 µg/mL
same,MIC,"Escherichia coli; Escherichia coli ATCC 25922, CAA supplemented with human serum",1 µg/mL
same,45 hr MIC,"M. smegmatis; M. smegmatis MC^2 155, Run #1",4 µg/mL
same,45 hr MIC,"M. smegmatis; M. smegmatis MC^2 155, Run #2",4 µg/mL
same,MIC,[3],2 µg/mL
same,"Minimal inhibitory concentration, Human Serum",[3],2 µg/mL
same,MIC BALB/C Mouse Serum,[4]; BALB/C mouse serum […],32 µg/mL
same,MIC CAA,[4]; CAA,0.5 µg/mL
same,MIC New Zealand White Rabbit Serum,[4]; New Zealand White rabbit serum […],2 µg/mL
same,MIC Sprague Dawley Rat Serum,[4]; Sprague Dawley rat serum […],2 µg/mL
same,MIC Human Serum,[4]; human serum […],0.5 µg/mL
same,"activity (good = MIC100 of ≤4) against all of P. aeruginosa, K. pneumoniae, A. baumannii, E. cloacae, and E. coli",[5],good activity
same,MBEC,[6]; A. baumanni (ATCC BAA-747),0.5 µg/mL
same,MBEC,[6]; E. cloacae (CCUG 63317),2 µg/mL
same,MBEC,[6]; E. coli (ATCC 25922),2 µg/mL
same,MBEC,[6]; E. coli (ATCC 35329),4 µg/mL
same,MBEC,[6]; E. coli (EC2),2 µg/mL
same,MBEC,[6]; K. pneumoniae (ATCC 700603),4 µg/mL
same,MBEC,[6]; K. pneumoniae (KP1),2 µg/mL
same,MBEC,[6]; P. aeruginosa (ATCC 27853),0.25 µg/mL
same,antibiofilm activity (MBEC),"[6]; biofilms formed 24 hours in LB, treated 16 hours",potent antibiofilm activity
same,45 hr MIC,M. fortuitum,2 µg/mL
same,Serial Passage MIC Day 0,"[7]; 21-day study, Day 0, duplicates (1),(2)",0.25 µg/mL
same,Serial Passage MIC Day 21,"[7]; 21-day study, Day 21, duplicates (1),(2)",0.25 µg/mL
same,Serial Passage MIC Day 0 (untreated),"[7]; Day 0, MIC of agent on untreated control culture",0.25 µg/mL
same,Serial Passage MIC Day 0,"[7]; Day 0, cultures passaged with agent, duplicates (1),(2)",0.25 µg/mL
same,Serial Passage MIC Day 1 (untreated),"[7]; Day 1, MIC of agent on untreated control culture",0.25 µg/mL
same,Serial Passage MIC Day 1,"[7]; Day 1, cultures passaged with agent, duplicates (1),(2)",0.25 µg/mL
same,Serial Passage MIC Day 2 (untreated),"[7]; Day 2, MIC of agent on untreated control culture",0.25 µg/mL
same,Serial Passage MIC Day 2,"[7]; Day 2, cultures passaged with agent, duplicates (1),(2)",0.25 µg/mL
same,Serial Passage MIC Day 3 (untreated),"[7]; Day 3, MIC of agent on untreated control culture",0.25 µg/mL
same,Serial Passage MIC Day 3,"[7]; Day 3, cultures passaged with agent, duplicates (1),(2)",0.25 µg/mL
same,Serial Passage MIC Day 4 (untreated),"[7]; Day 4, MIC of agent on untreated control culture",0.25 µg/mL
same,Serial Passage MIC Day 4,"[7]; Day 4, cultures passaged with agent, duplicates (1),(2)",0.25 µg/mL
same,Serial Passage MIC Day 5 (untreated),"[7]; Day 5, MIC of agent on untreated control culture",0.25 µg/mL
same,Serial Passage MIC Day 5,"[7]; Day 5, cultures passaged with agent, duplicates (1),(2)",0.25 µg/mL
same,Serial Passage MIC Day 6 (untreated),"[7]; Day 6, MIC of agent on untreated control culture",0.25 µg/mL
same,Serial Passage MIC Day 6,"[7]; Day 6, cultures passaged with agent, duplicates (1),(2)",0.25 µg/mL
same,Serial Passage MIC Day 7 (untreated),"[7]; Day 7, MIC of agent on untreated control culture",0.25 µg/mL
same,Serial Passage MIC Day 7,"[7]; Day 7, cultures passaged with agent, duplicates (1),(2)",0.25 µg/mL
same,Serial Passage MIC Day 8 (untreated),"[7]; Day 8, MIC of agent on untreated control culture",0.25 µg/mL
same,Serial Passage MIC Day 8,"[7]; Day 8, cultures passaged with agent, duplicates (1),(2)",0.25 µg/mL
same,Serial Passage MIC Day 9 (untreated),"[7]; Day 9, MIC of agent on untreated control culture",0.25 µg/mL
same,Serial Passage MIC Day 9,"[7]; Day 9, cultures passaged with agent, duplicates (1),(2)",0.25 µg/mL
same,change in MIC after 21 days,[7]; serial passage,no significant change
